# Measurements published in patent US20210380548A1, “Fused [1,2,4]Thiadiazine Derivatives Which Act as KAT Inhibitors of the MYST Family” (CTxT Pty Limited, priority 2017, published 2021).
# Legend:
# [1] = target: T1, HBO-KAT7 (Homo sapiens, UniProt O95251); test: Acetyltransferase biochemical assay (AlphaScreen), KAT7; settings: Table 3 (HBO-KAT7); 0.4 μM Acetyl coenzyme A, histone H3.1, 40 nM enzyme
# T1 construct: encoding amino acid residues 325 to 611 (Uniprot 095251-1) of human KAT7; made in house; host or cells: E. coli BL21 DE3 RIL
# T1 sequence (O95251 with tags, fused parts or gaps): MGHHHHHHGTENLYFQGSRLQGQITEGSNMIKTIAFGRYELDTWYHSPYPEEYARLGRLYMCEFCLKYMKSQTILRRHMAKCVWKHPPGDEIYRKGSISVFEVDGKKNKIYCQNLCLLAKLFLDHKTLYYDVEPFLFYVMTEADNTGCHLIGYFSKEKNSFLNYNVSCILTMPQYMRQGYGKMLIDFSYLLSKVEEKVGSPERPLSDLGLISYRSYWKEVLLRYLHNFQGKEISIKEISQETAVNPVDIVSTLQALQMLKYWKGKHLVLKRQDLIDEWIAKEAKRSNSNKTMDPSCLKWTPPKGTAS
# [2] = target: T2, MOZ-KAT6A (Homo sapiens, UniProt Q92794, A567V); test: Revised Acetyltransferase Biochemical Assay, KAT6A; settings: Table 8 (MOZ-KAT6A), 1 μM Acetyl coenzyme A
# T2 construct: encoding amino acid residues 507 to 778 (Uniprot Q92794-1) of human KAT6A; made in house; host or cells: E. coli BL21 DE3
# T2 sequence (Q92794 507-778 A567V limits assumed): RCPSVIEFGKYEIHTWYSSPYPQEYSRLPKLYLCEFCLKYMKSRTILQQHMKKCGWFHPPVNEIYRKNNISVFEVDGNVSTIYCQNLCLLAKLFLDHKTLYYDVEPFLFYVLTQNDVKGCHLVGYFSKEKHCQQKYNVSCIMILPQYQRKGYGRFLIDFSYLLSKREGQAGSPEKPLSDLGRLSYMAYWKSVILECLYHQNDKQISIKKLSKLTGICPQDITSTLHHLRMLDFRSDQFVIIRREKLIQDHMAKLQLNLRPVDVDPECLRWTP
# [3] = target: T1, HBO-KAT7; test: Revised Acetyltransferase Biochemical Assay, KAT7; settings: Table 9 (HBO-KAT7), 1 μM Acetyl coenzyme A
# [4] = test system: histone H3K23 acetylation (KATE mediated) in U2OS cells; test: Histone H3 Lysine 23 Acetylation Biomarker Assay (U2OS); format: cell-based; settings: Homo sapiens, 96 well, 24 hours incubation
# Description: Compounds may be tested for their ability to inhibit acetylation of the histone H3K23 marker, which is KATE mediated, in the following assay:
# The cell line U2OS was seeded at a density of 9,000 cells per well in 96 well optical quality tissue culture plates in RPMI medium and 10% foetal bovine serum, and allowed to adhere for 24 hours under standard culture conditions (37 degree Celsius, 5% CO2). At the end of this period the medium was aspirated. Compound dilutions prepared in DMSO were added to medium, with negative control wells reserved for treatment with DMSO only and 100% inhibition positive controls receiving a potent inhibitor compound (e.g. cas 2055397-28-7, benzoic acid, 3-fluoro-5-(2-pyridinyl)-, 2-[(2-fluorophenyl)sulfonyl]hydrazide) (Baell, J., Nguyen, H. N., Leaver, D. J., Cleary, B. L., Lagiakos, H. R., Sheikh, B. N., Thomas. T. J., Aryl sulfonohydrazides, WO2016198507A1, 2016) at 10 μM concentration and 200 μL transferred to the cells. After incubation for 24 hours, the cells were fixed with 3.7% formaldehyde in PBS for 20 minutes at room temperature, washed (5×5 minutes) with phosphate buffer saline containing 0.1% Tween 20 and blocked with Odyssey blocking buffer (LI-COR, Lincoln, Nebr.) containing 0.1% TritonX100. Anti-H3K23ac specific antibody (Abcam ab177275) in Odyssey blocking buffer containing 0.1% Tween 20 was added and incubated for 16 hours at 4 degree Celsius. After washing (as above), a secondary antibody labelled with Alexa647 dye (LifeTechnologies) and Hoechst 33342 (1 μg/mL, SigmaAldrich) were added for 1 hour incubation. Plates were washed as previously and read on a PerkinElmer Phenix high content imaging platform. Using a Columbus image analysis pipeline, individual nuclei were located by Hoechst 33342 stain and the acetylation level was calculated from the Alexa647-related intensity in the same area. The resulting mean intensity per cell was directly converted to percent inhibition relative to controls on the same plate and the data fitted against a four-parameter logistic model to determine the 50% inhibitory concentration (IC50).
# [5] = target: T3, TIP60-KAT5 (Homo sapiens, UniProt Q92993); test: Acetyltransferase biochemical assay (AlphaScreen), KAT5; settings: Table 1 (TIP60-KAT5); 0.4 μM Acetyl coenzyme A, histone H4, 10 nM enzyme
# T3 construct: encoding amino acid residues 2 to 461 (Uniprot Q92993-2) of human KAT5 isoform; made in house; host or cells: E. coli BL21 DE3
# T3 sequence (Q92993 2-461 isoform Q92993-2): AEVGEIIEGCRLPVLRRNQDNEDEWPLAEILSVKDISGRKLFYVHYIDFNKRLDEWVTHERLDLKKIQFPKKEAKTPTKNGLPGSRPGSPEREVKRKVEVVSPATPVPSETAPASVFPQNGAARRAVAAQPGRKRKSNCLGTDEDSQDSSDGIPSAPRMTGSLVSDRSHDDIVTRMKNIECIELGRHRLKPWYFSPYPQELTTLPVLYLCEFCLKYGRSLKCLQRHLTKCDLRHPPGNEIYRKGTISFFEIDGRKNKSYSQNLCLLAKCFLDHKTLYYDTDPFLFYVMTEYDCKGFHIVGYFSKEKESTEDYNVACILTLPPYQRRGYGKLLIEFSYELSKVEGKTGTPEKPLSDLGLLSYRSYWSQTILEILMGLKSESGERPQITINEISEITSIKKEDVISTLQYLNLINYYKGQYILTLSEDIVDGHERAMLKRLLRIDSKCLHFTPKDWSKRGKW
# [6] = target: T3, TIP60-KAT5; test: Revised Acetyltransferase Biochemical Assay, KAT5; settings: 10 nM KAT5, 1 μM AcCoA, 100 nM histone H4, 90 min
# [7] = target: T4, MOF-KAT8 (Homo sapiens, UniProt Q9H7Z6); test: Revised Acetyltransferase Biochemical Assay, KAT8
# T4 sequence (Q9H7Z6 177-447): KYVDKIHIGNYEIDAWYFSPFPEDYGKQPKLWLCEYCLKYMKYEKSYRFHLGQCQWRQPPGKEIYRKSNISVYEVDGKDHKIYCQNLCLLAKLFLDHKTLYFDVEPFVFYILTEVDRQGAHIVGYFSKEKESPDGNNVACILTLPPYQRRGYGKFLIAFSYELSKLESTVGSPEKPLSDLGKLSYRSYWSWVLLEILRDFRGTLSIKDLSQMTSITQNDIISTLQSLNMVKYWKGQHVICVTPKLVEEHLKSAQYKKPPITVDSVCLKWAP
# [8] = target: T2, MOZ-KAT6A; test: Acetyltransferase biochemical assay (AlphaScreen), KAT6A; settings: Table 2 (MOZ-KAT6A); 10 μM Acetyl coenzyme A, histone H3.1, 5 nM enzyme
# [9] = test system: histone H2A.Z Lysine 7 acetylation (TIP60 mediated) in U2OS cells; test: H2A.Z Lysine 7 Acetylation Biomarker Assay (384-well, U2OS); format: cell-based; settings: Homo sapiens, serum free medium, 24 hours incubation
# Description: Compounds may be tested for their ability to inhibit the histone H2A.Z Lysine 7 acetylation marker (which is TIP60 mediated) in the following assay:
# The cell line U2OS was seeded at a density of 3,000 cells per well in 384-well optical quality tissue culture plates in RPMI medium supplemented with 10% foetal bovine serum and 10 mM Hepes. The cells were allowed to adhere for 24 hours under standard culture conditions (37 degree Celsius, 5% CO2). At the end of this period the cells were washed with serum free medium. […] After incubation for 24 hours, the cells were fixed with 4% formaldehyde in PBS for 15 minutes at room temperature, washed with phosphate buffer saline and blocked with blocking buffer containing 0.2% TritonX100 and 2% BSA. Anti-H2A.ZK7ac specific antibody (Abcam) in blocking buffer was added and incubated overnight at 4 degree Celsius. After washing, a secondary antibody labelled with AlexaFluor 488 dye (ThermoFisher) and Hoechst 33342 (1 μg/mL, Life Technologies) were added for 2 hours incubation at room temperature. Plates were washed and read on a PerkinElmer Opera HCS high content imaging platform. Using a Columbus image analysis pipeline, individual nuclei were located by Hoechst 33342 stain and the acetylation level was calculated from the AlexaFluor 488-related intensity in the same area. The resulting mean intensity per cell was converted to percent inhibition relative to controls on the same plate and the data fitted against a four-parameter logistic model to determine the 50% inhibitory concentration (IC50).
# [10] = target: T4, MOF-KAT8; test: Acetyltransferase biochemical assay (AlphaScreen), KAT8; settings: Table 4 (MOF-KAT8); 0.4 μM Acetyl coenzyme A, histone H4, 20 nM enzyme
# [11] = test system: histone H3 Lysine 14 acetylation (HBO1 mediated) in U2OS cells; test: Histone H3 Lysine 14 Acetylation Biomarker Assay (384-well, U2OS); format: cell-based; settings: Homo sapiens, serum free medium, 24 hours incubation
# Description: Compounds may be tested for their ability to inhibit acetylation of the histone H3 Lysine 14 (which is HBO1 mediated) marker in the following assay:
# The cell line U2OS was seeded at a density of 3,000 cells per well in 384-well optical quality tissue culture plates in RPMI medium supplemented with 10% foetal bovine serum and 10 mM Hepes. The cells were allowed to adhere for 24 hours under standard culture conditions (37 degree Celsius, 5% CO2). At the end of this period the cells were washed with serum free medium. Compound dilutions prepared in DMSO were added to the serum free medium, with negative control wells reserved for treatment with DMSO only and 100% inhibition positive controls receiving a potent inhibitor compound (e.g. (Z)-4-fluoro-N-((3-hydroxyphenyl)sulfonyl)-5-methyl-[1,1′-biphenyl]-3-carbohydrazonic acid) at 10 μM concentration. After incubation for 24 hours, the cells were fixed with 4% formaldehyde in PBS for 15 minutes at room temperature, washed with phosphate buffer saline and blocked with blocking buffer containing 0.2% TritonX100 and 2% BSA. Anti-H3K14ac specific antibody (Cell Signalling Technologies) in blocking buffer was added and incubated overnight at 4 degree Celsius. After washing, a secondary antibody labelled with AlexaFluor 488 dye (ThermoFisher) and Hoechst 33342 (1 μg/mL, Life Technologies) were added for 2 hours incubation at room temperature. Plates were washed and read on a
# PerkinElmer Opera HCS high content imaging platform. Using a Columbus image analysis pipeline, individual nuclei were located by Hoechst 33342 stain and the acetylation level was calculated from the AlexaFluor 488-related intensity in the same area. The resulting mean intensity per cell was converted to percent inhibition relative to controls on the same plate and the data fitted against a four-parameter logistic model to determine the 50% inhibitory concentration (IC50).
SMILES,IC50 [1] [nM],IC50 [2] [nM],IC50 [3] [nM],IC50 [4] [µM],IC50 [5] [nM],IC50 [6] [nM],IC50 [7] [µM],IC50 [8] [µM],IC50 [9] [µM],IC50 [10] [µM],IC50 [11] [µM]
"O=C(NCC(O)c1ccccc1OC(F)F)C1=Nc2ccc(I)cc2S(=O)(=O)N1 (centres unmarked) [Example 57, N-(2-(2-(difluoromethoxy)phenyl)-2-hydroxyethyl)-7-iodo-2H-benzo[e][1,2,4]thiadiazine-3-carboxamide 1,1-dioxide]",2530,403,840,> 10,2800,725,11.3,–,–,–,–
O=C(NCC(c1ccccc1)c1ncco1)C1=Nc2ccncc2S(=O)(=O)N1 (centres unmarked) [Example 97],49400,417,–,> 10,> 125000,26100,–,4,–,–,–
CNC(=O)CCCOC(=O)C(CNC(=O)C1=Nc2ccc(I)cc2S(=O)(=O)N1)c1ccccc1 (centres unmarked) [Example 180],–,229,557,–,–,249,–,–,37.5,77,–
CNC(=O)CCOC(=O)C(CNC(=O)C1=Nc2ccc(I)cc2S(=O)(=O)N1)c1ccccc1 (centres unmarked) [Example 183],–,44,718,–,–,68,30.5,–,33.2,36.3,–
"CC(O)c1ccc2c(c1)S(=O)(=O)NC(C(=O)NCC(c1ccccc1)c1ncco1)=N2 (centres unmarked) [Example 212, 7-(1-Hydroxyethyl)-N-(2-(oxazol-2-yl)-2-phenylethyl)-2H-benzo[e][1,2,4]thiadiazine-3-carboxamide 1,1-dioxide]",–,241,1090,–,–,4000,–,–,–,40.8,4.15
"Cc1cccc(C(CNC(=O)C2=Nc3ccc(Cl)cc3S(=O)(=O)N2)c2ncco2)c1 (centres unmarked) [Example 234, 7-chloro-N-(2-(oxazol-2-yl)-2-(m-tolyl)ethyl)-2H-benzo[e][1,2,4]thiadiazine-3-carboxamide 1,1-dioxide]",–,72,89,–,–,1370,23.6,–,6.15,57.3,–
"O=C(NCC(c1ccccn1)n1cccn1)C1=Nc2ccc(Br)cc2S(=O)(=O)N1 (centres unmarked) [Example 244, N-(2-(1H-Pyrazol-1-yl)-2-(pyridin-2-yl)ethyl)-7-bromo-4H-benzo[e][1,2,4]thiadiazine-3-carboxamide 1,1-dioxide]",–,6830,3830,–,–,14600,–,–,–,82.9,> 40

# Stronger by IC50 [2], values ahead:
IC50 [1] [nM],IC50 [2] [nM],IC50 [3] [nM],IC50 [4] [µM],IC50 [5] [nM],IC50 [6] [nM],IC50 [7] [µM],IC50 [8] [µM],IC50 [9] [µM],IC50 [10] [µM],IC50 [11] [µM],SMILES
571,21,112,–,–,852,61,–,20.5,106,–,COc1ccccc1C(CNC(=O)C1=Nc2ccc(Cl)cc2S(=O)(=O)N1)c1ncco1 (centres unmarked) [Example 178]
–,8,114,–,–,99,10.2,–,8.28,9.22,–,"COc1ccccc1C(CNC(=O)C1=Nc2ccc(I)cc2S(=O)(=O)N1)c1ncco1 (centres unmarked) [Example 184, 7-iodo-N-(2-(2-methoxyphenyl)-2-(oxazol-2-yl)ethyl)-2H-benzo[e][1,2,4]thiadiazine-3-carboxamide 1,1-dioxide]"
–,41,215,–,–,1440,54.3,–,–,39.8,0.427,"COc1cccc(C(CNC(=O)C2=Nc3ccc(Br)cc3S(=O)(=O)N2)c2ncco2)c1 (centres unmarked) [Example 188, 7-bromo-N-(2-(3-methoxyphenyl)-2-(oxazol-2-yl)ethyl)-2H-benzo[e][1,2,4]thiadiazine-3-carboxamide 1,1-dioxide]"
–,9,115,–,–,34,3.23,–,1.08,6.59,–,"O=C(NCC(c1ncco1)c1ccccc1F)C1=Nc2ccc(I)cc2S(=O)(=O)N1 (centres unmarked) [Example 235, N-(2-(2-fluorophenyl)-2-(oxazol-2-yl)ethyl)-7-iodo-2H-benzo[e][1,2,4]thiadiazine-3-carboxamide 1,1-dioxide]"
–,10,73,–,–,113,19.6,–,7.85,20.2,–,"O=C(NCC(c1ncco1)c1ccccc1F)C1=Nc2ccc(Cl)cc2S(=O)(=O)N1 (centres unmarked) [Example 236, 7-chloro-N-(2-(2-fluorophenyl)-2-(oxazol-2-yl)ethyl)-2H-benzo[e][1,2,4]thiadiazine-3-carboxamide 1,1-dioxide]"
